Data on five compounds can be found in patent US12630512B2, “Agents for differentiating stem cells and treating cancer” (Minerva Biotechnologies Corporation, priority 2017, dated 2026).

The subject of data set [1] is cancer cells. To be noted: NME7AB-driven transformation; stated as previously shown; cited from earlier work.
Data set [2] relates to human naïve state stem cells. Description: Stem cell drug screen on naïve state stem cells (pluripotency, proliferation, differentiation). The class given is cell-based. To be noted: first panel (FIGS. 2, 7-10); small molecules 6 uM; 3 days; with or without NME7AB. Here is the method:
(§1) The stem cell screening assay, was performed in both the presence and absence of the stem cell growth factors: NME7AB for growing naïve stem cells or FGF for growing primed stem cells. If the cognate growth factor was present, then the biological or small molecule would have to compete away the growth factor to get an effect. Therefore, we expected to see more of an effect when the growth factor, FGF for primed stem cells or NME7AB or NME1 dimers for naïve stem cells, was absent. The effect of the compounds on stem cells was visually determined and compounds were ranked 0-4, with 4 being the greatest effect and 0 being no observable effect. The major effect that was observed was a change from pluripotent stem cell morphology, which is a cobblestone pattern of small round cells with a large nucleus to cytoplasm ratio, to that of differentiating stem cells, which are elongated, large and flattened cells with a smaller nucleus to cytoplasm ratio. […] The compounds were added to a final concentration of 6 uM to either naïve state stem cells or primed state stem cells. In this particular case, the naïve state stem cells were maintained in a naïve state by culturing in a media containing NME7AB or NME1 dimers. However, other methods such as 2i and 5i (Silva et al., 2008, Nichols and Smith, 2009, Theunissen et al., 2014)] can be used to maintain stem cells in a more naïve state. In this case primed state stem cells were cultured in bFGF over a layer of MEFs, although it is known that any bFGF containing media will maintain stem cells in the primed state.
(§2) Percent inhibition of cancer cell migration was performed in a wound healing assay. The percent area that the invading cancer cells occupied, in the presence of a drug candidate compared to the controls, was quantified by Image J cell software which enables cell counting from photographs. IC50's were calculated by performing migration experiments at several compound concentrations and then applying Hill's equation. Inhibition of cancer cell proliferation was quantified by automated cell counting in the presence or absence of a drug candidate. Here, the inhibition of cancer cell proliferation was scored 1 if proliferation was inhibited by 25%, 2 if inhibited by […] and 4 for the highest degree of inhibition of proliferation, and 0 for the lowest. The effect of the drug candidates on stem cell pluripotency or proliferation was scored by eye, based on cell morphology and cell density, with 0 being no change in morphology or cell number and 4 being the most profound effect, with the stem cells taking on the morphology of a differentiating cell, along with much fewer cells indicative of inhibition of proliferation. As an example, FIGS. 30A-30F show photographs of naïve stem cell, primed stem cell and fibroblast controls. FIGS. 31A-31F show the effect of compounds of the invention on naïve state stem cells, where the number of ‘+’ signs indicates the score from 0-4 of ability of compound to inhibit pluripotency, proliferation of naïve stem cells or ability to induce their differentiation. […] FIGS. 36-44 and 65-87 show photographs and IC50 graphs of the compounds of the invention, inhibiting cancer cell migration and invasion. Cancer cell migration is a hallmark of metastatic cancer.
Stem cells whether embryonic or induced pluripotent stem (iPS) cells were cultured in a minimal, serum-free media that contained human recombinant NME7AB at a concentration of 2-32 nM wherein 4-8 nM is preferred and 4 nM is more preferred. To facilitate surface attachment, cell culture plates were coated with an anti-MUC1* monoclonal antibody called MN-C3 or C3 or MN-C8 at a concentration of 2-100 μg/mL coating solution, wherein 3-50 ug/mL is preferred and 6-12.5 ug/mL is more preferred. In these experiments, 12.5 ug/mL of MN-C3 was used. Antibody coated plates were incubated at 4 degrees C. overnight prior to plating stem cells. A Rho kinase I inhibitor was added to enhance surface attachment. […]

Data set [3] concerns cancer cells. To be noted: in vitro; stated as previously shown; cited from earlier work.
Data set [4] relates to fibronectin, vimentin, NF1. The data set is described as follows: RT-PCR of markers of differentiation in naïve stem cells. The class given is cell-based, human. The source says:
The genes whose expression increased as a result of treatment with the compounds of the invention, in a concentration dependent manner, are fibronectin and vimentin, which both increase as stem cells initiate differentiation and NF1, which is one of the first genes to increase when stem cells begin to differentiate down the neural lineage. […] Thus, compounds of the invention that induce markers of differentiation are useful for the treatment of cancers, because cancer cells, by definition, have de-differentiated, which allows them to continually self-replicate. […] Expression of metastatic marker E-cadherin was reduced and expression of differentiation markers fibronectin, vimentin and NF1 were increased.

The subject of data set [5] is human primed state stem cells. Description: Stem cell drug screen on primed state stem cells (pluripotency, proliferation, differentiation). The data set is classed as cell-based. The settings on record: for induction of differentiation / effect on growth of primed state stem cells: treated for 3 days, JQ1 at 500 nM or 1 uM (FIGS. 11-12). As to the method:
as §1, §2
Stem cells whether embryonic or induced pluripotent stem (iPS) cells were cultured in a minimal, serum-free media that contained human recombinant bFGF at a concentration of 8 ng/mL. The stem cells were plated over a layer of inactivated mouse embryonic fibroblasts, aka MEFs, which secrete additional uncharacterized growth factors and cytokines.
Human naïve state and primed stem cells were cultured in parallel for at least 5 passages to guarantee normal differentiation-free growth. The stem cells were plated in 12-well cell culture plates with 50,000 cells per well. Cells were cultured in their respective media, either bFGF media or NME7AB media for 24 hours. […]

The test system of another data set is human fibroblasts. The data set is described as follows: Effect on fibroblasts as surrogate for normal cells. The class given is cell-based. The settings on record: 500 nM final concentration (FIG. 24). From the text: However, fibroblasts are more differentiated than stem cells but are able to self-replicate for defined periods of time. We tested selected compounds of the invention to determine if these compounds were just cytotoxic or if they selectively affected stem cells and, importantly, cancer cells, but not normal, healthy cells. Here, we used fibroblasts as a surrogate for normal cells. […] […] Each compound was scored for its effect on fibroblast proliferation where “+” indicates 25% inhibition of fibroblast growth, “++” 50% inhibition and “+++” 75% inhibition of growth.

The test system of data set [6] is human naïve state stem cells. The data set is described as follows: Stem cell drug screen on naïve state stem cells (pluripotency, proliferation, differentiation). The data set is classed as cell-based. To be noted: JQ1 at 500 nM or 1 uM, naïve cells from NME7AB or NME1 dimers (FIGS. 13-16).

On to “FLR peptide: synthetic peptide corresponding to the extracellular domain of MUC1*, FLR also known as PSMGFR (SEQ ID NO:3) (GTINVHDVETQFNQYKTEAASRYNLTISDVSVSDVPFPFSAQSGA; the extracellular domain of Native Primary Sequence of the MUC1 Growth Factor Receptor (nat-PSMGFR - an example of "PSMGFR"))”, for which, in the data set on cancer cells [1], the “inhibition of the transition of regular cancer cells to metastatic cancer cells” value is recorded as “inhibit the transition”. In addition, the “induced differentiation / inhibited pluripotency and growth of naïve state stem cells” value in data set [2] is “induced differentiation”.
As to `COC(=O)c1ccc(C2c3[nH]c4ccccc4c3CCN2C(=O)c2cccc(Cl)c2)cc1` (centres unmarked) [MN0642], the “inhibition of cancer cell growth” value in the data set on cancer cells [3] is “inhibit the growth of cancer cells in vitro”. Moreover, the “induced differentiation / inhibited pluripotency and growth of naïve state stem cells” value in data set [2] is “induced differentiation”.
Consider `Cc1[nH]c(/C=C2\C(=O)Nc3ccc(S(=O)(=O)N(C)c4cccc(Cl)c4)cc32)c(C)c1C(=O)N1CCN(C)CC1` [SU11274], for which, in data set [4], the “up-regulation of markers of differentiation in stem cells” value is “did not cause up-regulation of markers of differentiation”.
On to `CCCCNC(=O)N1CCc2c([nH]c3ccccc23)C1C(C)c1ccccc1` (centres unmarked) [MN1130], for which the “effect on primed stem cells” value in data set [5] (first panel (FIGS. 2-6), small molecules 6 uM, 3 days, with or without FGF) is “modest effect”. In addition, in data set [2], the “induced differentiation / inhibited pluripotency and growth of naïve state stem cells” value was “induced differentiation”.
Take `Cc1sc2c(c1C)C(c1ccc(Cl)cc1)=N[C@@H](CC(=O)OC(C)(C)C)c1nnc(C)n1-2` [JQ1(+), reference compound]: the “effect on human fibroblasts” value in the data set with human fibroblasts was “same effect on fibroblasts as it does on primed state stem cells”. The “effect on naïve state stem cell differentiation and growth” value is “dramatically induced differentiation of naïve state stem cells and inhibited their growth” in data set [6]; “inhibitory effect” in data set [6] (listed as JQI). Moreover, the “up-regulation of markers of differentiation in stem cells” value in data set [4] is listed as “did not cause up-regulation of markers of differentiation”. Moreover, the “effect on the size of primed stem cell colonies” value in data set [5] (treated for 3 days (FIG. 11)) is listed as “modest effect”. Also, the entries for the “induction of differentiation / effect on growth of primed state stem cells” value in data set [5] and in data set [5] (listed as JQI) were “None of these agents appeared to induce differentiation” and “not primed stem cell growth”, respectively.
